Test results: patent publication US20240270821A1, “GIP/GLP1/GCG TRI-RECEPTOR AGONISTS AND USES THEREOF” (priority 2023, published 2024)
Where two headings read alike, the source gives them in different places. Starred links: 1 amine or outer side, 2 acyl side, 3 side chain; linkers in the order of their positions; H or OH if unused. Non-standard residues stand in square brackets, D forms with d. Groups on a side chain read outwards from the residue. *: point of attachment. C18 diacid = O=C(O)CCCCCCCCCCCCCCCCC(=O)*; αMePhe(2-F) = C[C@](N)(Cc1ccccc1F)C(=O)O; γGlu = O=C(O)[C@H](CCC(=O)[*:2])N[*:1]; αMe4Pal = C[C@](N)(Cc1ccncc1)C(=O)O; αMeY = C[C@](N)(Cc1ccc(O)cc1)C(=O)O; 4Pal = N[C@@H](Cc1ccncc1)C(=O)O; αMeL = CC(C)C[C@](C)(N)C(=O)O; αMeS = C[C@](N)(CO)C(=O)O; Orn = NCCC[C@H](N)C(=O)O; Aib = CC(C)(N)C(=O)O

Legend:
Type in all cases: cell-based
hGIPR [1] = molecular target: T1, hGIPR (Homo sapiens, UniProt P48546); experiment: Functional cAMP activity in the presence of 1% HSA; settings: read-out: cAMP Rel EC50, hGIPR
T1 sequence (P48546 22-466): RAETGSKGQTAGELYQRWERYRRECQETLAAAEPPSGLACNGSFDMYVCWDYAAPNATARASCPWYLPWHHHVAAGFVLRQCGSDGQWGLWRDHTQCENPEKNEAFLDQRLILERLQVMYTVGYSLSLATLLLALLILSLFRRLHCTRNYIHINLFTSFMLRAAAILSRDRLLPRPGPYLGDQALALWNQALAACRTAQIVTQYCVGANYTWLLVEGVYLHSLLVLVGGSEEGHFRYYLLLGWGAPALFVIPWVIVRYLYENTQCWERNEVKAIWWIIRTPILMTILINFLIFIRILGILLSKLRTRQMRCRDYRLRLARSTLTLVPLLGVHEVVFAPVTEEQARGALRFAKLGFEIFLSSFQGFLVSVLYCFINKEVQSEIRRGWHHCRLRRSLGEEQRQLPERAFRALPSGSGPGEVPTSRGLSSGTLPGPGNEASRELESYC

hGLP-1R [2] = molecular target: T2, hGLP-1R (Homo sapiens, UniProt P43220); experiment: Functional cAMP activity in the presence of 1% HSA; settings: read-out: cAMP Rel EC50, hGLP-1R
human GcgR = human GcgR (Homo sapiens, UniProt P47871); experiment: Functional cAMP activity in the presence of 1% HSA
hGIPR [3] = molecular target: T1, hGIPR; experiment: Functional cAMP activation in the presence of 0.1% casein (no HSA);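 as to Relative cAMP EC50, hGIPR: intracellular cAMP rise after 30 min at 37 °C read by HTRF against a standard curve, scaled between buffer alone (0%) and top control ligand concentration (100%), four-parameter fit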;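 as to Relative cAMP EC50, hGLP-1R: intracellular cAMP rise after 30 min at 37 °C read by HTRF, normalized between buffer only (0%) and maximal control ligand (100%), four-parameter variable-slope fit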;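 as to Relative cAMP EC50, hGcgR: intracellular cAMP rise after 30 min at 37 °C, read by HTRF against a cAMP standard curve, scaled from buffer only (0%) to maximal control ligand response (100%)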
hGLP-1R [4] = molecular target: T2, hGLP-1R; experiment: as above
hGcgR = hGcgR (Homo sapiens, UniProt P47871); experiment: as above;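 also: intracellular cAMP rise after 30 min at 37 °C, read by HTRF against a cAMP standard curve, scaled from buffer only (0%) to maximal control ligand response (100%)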
[5] = 0.1% casein, no HSA, geometric mean, read-out: Relative cAMP EC50, hGIPR
[6] = 0.1% casein, no HSA, geometric mean, read-out: Relative cAMP EC50, hGLP-1R
[7] = 0.1% casein, no HSA, geometric mean, read-out: Relative cAMP EC50, hGcgR
[8] = read-out: Relative cAMP EC50, hGIPR
[9] = read-out: Relative cAMP EC50, hGLP-1R
[10] = read-out: Relative cAMP EC50, hGcgR
[11] = in the presence of 0.1% casein (no HSA), geometric mean, read-out: Relative cAMP EC50, hGIPR
[12] = in the presence of 0.1% casein (no HSA), geometric mean, read-out: Relative cAMP EC50, hGLP-1R
[13] = in the presence of 0.1% casein (no HSA), geometric mean, read-out: Relative cAMP EC50, hGcgR

hGcgR, sequence (P47871 26-477): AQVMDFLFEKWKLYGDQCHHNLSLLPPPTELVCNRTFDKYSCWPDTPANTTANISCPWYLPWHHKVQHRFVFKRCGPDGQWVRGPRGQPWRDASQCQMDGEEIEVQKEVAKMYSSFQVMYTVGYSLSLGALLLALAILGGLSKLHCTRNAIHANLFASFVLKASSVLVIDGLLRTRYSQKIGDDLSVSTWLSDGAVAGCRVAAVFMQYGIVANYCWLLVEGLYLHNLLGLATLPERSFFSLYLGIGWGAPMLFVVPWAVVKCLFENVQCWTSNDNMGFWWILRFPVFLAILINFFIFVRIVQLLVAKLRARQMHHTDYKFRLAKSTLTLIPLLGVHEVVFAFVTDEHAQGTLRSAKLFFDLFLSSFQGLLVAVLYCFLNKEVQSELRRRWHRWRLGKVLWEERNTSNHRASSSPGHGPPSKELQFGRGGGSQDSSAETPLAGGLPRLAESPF
human GcgR, sequence (P47871 26-477): as above
T2 sequence (P43220 24-463): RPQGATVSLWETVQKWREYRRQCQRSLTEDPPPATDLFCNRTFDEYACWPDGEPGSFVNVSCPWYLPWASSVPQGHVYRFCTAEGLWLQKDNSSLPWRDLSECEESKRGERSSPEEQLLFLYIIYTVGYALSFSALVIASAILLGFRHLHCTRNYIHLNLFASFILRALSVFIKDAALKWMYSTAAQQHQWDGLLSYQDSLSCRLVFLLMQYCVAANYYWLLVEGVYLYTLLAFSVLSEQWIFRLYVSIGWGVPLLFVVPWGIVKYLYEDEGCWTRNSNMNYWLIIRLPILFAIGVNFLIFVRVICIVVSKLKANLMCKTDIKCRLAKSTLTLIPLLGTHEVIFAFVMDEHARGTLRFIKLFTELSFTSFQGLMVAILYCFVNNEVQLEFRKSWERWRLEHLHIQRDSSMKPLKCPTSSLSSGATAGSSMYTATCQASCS

| EC50 (hGIPR [3]; [8]) | EC50 (hGLP-1R [4]; [9]) | EC50 (hGcgR; [10]) | EC50 (hGIPR [3]; [11]) | EC50 (hGLP-1R [4]; [12]) | EC50 (hGcgR; [13]) | Substance | EC50 (hGIPR [1]) | EC50 (hGLP-1R [2]) | EC50 (human GcgR; read-out: cAMP Rel EC50, hGcgR) | EC50 (hGIPR [3]; [5]) | EC50 (hGLP-1R [4]; [6]) | EC50 (hGcgR; [7]) | EC50 (human GcgR) | EC50 (hGIPR [3]) | EC50 (hGLP-1R [4]) | EC50 (hGcgR) |
| --- | --- | --- | --- | --- | --- | --- | --- | --- | --- | --- | --- | --- | --- | --- | --- | --- |
| – | – | – | – | – | – | H-Y[Aib]QGT[αMePhe(2-F)]TSD[4Pal][αMeS]I[αMeL]LD[Orn]K([γGlu-γGlu-C18 diacid])AQ[αMe4Pal]EFI[dE][αMeY]LIEGGPSSGAPPPEGGGEE-NH2 [Example 1220] | 609 pM | 48500 pM | 168000 pM | 9.9 pM | 674 pM | 1570 pM | – | – | – | – |
| – | – | – | – | – | – | H-Y[Aib]QGT[αMePhe(2-F)]TSD[4Pal][αMeS]I[αMeL]LD[Orn]K([γGlu-γGlu-C18 diacid])AQ[αMe4Pal]EFI[dE][αMeY]LIEGGPSSGAPPPEGTGE-NH2 [Example 764] | 649 pM | 38800 pM | – | – | – | – | 146000 pM | 6.26 pM | 289 pM | 1630 pM |
| – | – | – | – | – | – | H-Y[Aib]QGT[αMePhe(2-F)]TSD[4Pal][αMeS]I[αMeL]LD[Orn]K([γGlu-γGlu-C18 diacid])AQ[αMe4Pal]EFI[dE][αMeY]LIEGGPSSGAPPPSGGGEE-NH2 [Example 1218] | 626 pM | 48700 pM | 185000 pM | 8.39 pM | 580 pM | 1880 pM | – | – | – | – |
| – | – | – | – | – | – | H-Y[Aib]QGT[αMePhe(2-F)]TSD[4Pal][αMeS]I[αMeL]LD[Orn]K([γGlu-γGlu-C18 diacid])AQ[αMe4Pal]EFI[dE][αMeY]LIEGGPSSGAPPPSGGGEEE-NH2 [Example 1219] | 629 pM | 46800 pM | 168000 pM | 10.1 pM | 624 pM | 1640 pM | – | – | – | – |
| – | – | – | 3.39 pM | 262 pM | 1310 pM | H-Y[Aib]QGT[αMePhe(2-F)]TSD[4Pal][αMeS]I[αMeL]LD[Orn]K([γGlu-γGlu-C18 diacid])AQ[αMe4Pal]EFI[dE][αMeY]LIEGGPSSGEPPPSGE-NH2 [Example 1151] | 287 pM | 40000 pM | 206000 pM | – | – | – | – | – | – | – |
| 8.44 pM | 274 pM | 1040 pM | – | – | – | H-Y[Aib]QGT[αMePhe(2-F)]TSD[4Pal][αMeS]I[αMeL]LD[Orn]K([γGlu-γGlu-C18 diacid])AQ[αMe4Pal]EFI[dE][αMeY]LIEGGPSSGEPPPSGGGE-NH2 [Example 744] | 488 pM | 22100 pM | 111000 pM | – | – | – | – | – | – | – |
| 6.44 pM | 267 pM | 1000 pM | – | – | – | H-Y[Aib]QGT[αMePhe(2-F)]TSD[4Pal][αMeS]I[αMeL]LD[Orn]K([γGlu-γGlu-C18 diacid])AQ[αMe4Pal]EFI[dE][αMeY]LIEGGPSSGEPPPSGS-NH2 [Example 715] | 510 pM | 19700 pM | 126000 pM | – | – | – | – | – | – | – |
| 8.53 pM | 321 pM | 1120 pM | – | – | – | H-Y[Aib]QGT[αMePhe(2-F)]TSD[4Pal][αMeS]I[αMeL]LD[Orn]K([γGlu-γGlu-C18 diacid])AQ[αMe4Pal]EFI[dE][αMeY]LIEGGPSSGEPPPSGSE-NH2 [Example 716] | 557 pM | 24100 pM | 100000 pM | – | – | – | – | – | – | – |
| – | – | – | 9.73 pM | 390 pM | 2190 pM | H-Y[Aib]QGT[αMePhe(2-F)]TSD[4Pal][αMeS]I[αMeL]LD[Orn]K([γGlu-γGlu-C18 diacid])AQ[αMe4Pal]EFI[dE][αMeY]LVEGGPSSGEPPPSGE-NH2 [Example 1161] | 733 pM | 35500 pM | 217000 pM | – | – | – | – | – | – | – |

| Substance | EC50 (hGIPR [3]; [8]) | EC50 (hGLP-1R [4]; [9]) | EC50 (hGcgR; [10]) | EC50 (hGIPR [3]; [11]) | EC50 (hGLP-1R [4]; [12]) | EC50 (hGcgR; [13]) | EC50 (hGIPR [1]) | EC50 (hGLP-1R [2]) | EC50 (human GcgR; read-out: cAMP Rel EC50, hGcgR) | EC50 (hGIPR [3]; [5]) | EC50 (hGLP-1R [4]; [6]) | EC50 (hGcgR; [7]) | EC50 (human GcgR) | EC50 (hGIPR [3]) | EC50 (hGLP-1R [4]) | EC50 (hGcgR) |
| --- | --- | --- | --- | --- | --- | --- | --- | --- | --- | --- | --- | --- | --- | --- | --- | --- |
| H-Y[Aib]QGT[αMePhe(2-F)]TSD[4Pal][αMeS]I[αMeL]LD[Orn]K([γGlu-γGlu-C18 diacid])AQ[αMe4Pal]EFI[dE][αMeY]LIEGGPSSGAPPPSGSE-NH2 [Example 717] | 7.21 pM | 283 pM | 1140 pM | – | – | – | 561 pM | 21400 pM | 130000 pM | – | – | – | – | – | – | – |
| H-Y[Aib]QGT[αMePhe(2-F)]TSD[4Pal][αMeS]I[αMeL]LD[Orn]K([γGlu-γGlu-C18 diacid])AQ[αMe4Pal]EFI[dE][αMeY]LVEGGPSSGAPPPSGE-NH2 [Example 1160] | – | – | – | 7.73 pM | 365 pM | 2410 pM | 598 pM | 31200 pM | 183000 pM | – | – | – | – | – | – | – |
